Values quoted from earlier work as cited in patent US5183802A, “Pharmaceutical compositions for intranasal administration of calcitonin” (ISF Societa per Azioni, priority 1987, dated 1993).

Details: nasal absorption of insulin; compared with sodium caprate

For CC1(C)[C@@H](O)CC[C@]2(C)[C@H]3C(=O)C=C4[C@@H]5C[C@@](C)(C(=O)[O-])CC[C@]5(C)CC[C@@]4(C)[C@]3(C)CC[C@@H]12.[Na+] [sodium glycyrrhetinate], the “strength as absorption-enhancing agent for insulin” value is listed as “weaker than sodium caprate”.
